Test results published in patent US4455303A, “Renin inhibitors” (priority 1983, dated 1984).
Read-outs that look alike come from different tables or passages of the source. Where a SMILES comes first, the peptide text is derived from it. Where no end group is shown, it is not given here. [ ]: non-standard residue; d: D form. Phe(4-Cl) = N[C@@H](Cc1ccc(Cl)cc1)C(=O)O

Columns and labels:
[1] = test system: renin dependent hypertension; assay: Acute renovascular hypertension model, inflatable aortic cuff, monkey; format: in vivo, Macaca fascicularis; details: one monkey, cuff inflated
Experimental: The animal model of acute renovascular hypertension is prepared by surgically implanting an inflatable cuff about the aorta above the left kidney of an adult Macaca fascicularis as descirbed by Cody, R. J. et al (1980) Hypertension. The right kidney is subsequently removed and catheters implanted in the right iliac vein and artery. Two arterial catheters lead from above and below the constricting cuff to strain gauges permit blood pressure to be measured both above and below the cuff.
Inflation of the cuff creates a measurable amount of ischemia to the remaining kidney and renin dependent hypertension develops in about one hour.
The results of the injection of (RI-78) on the blood pressure and plasma renin level of one monkey are summarized below. The converting enzyme inhibitor teprotide (Ondetti et al, 19) is used as a control.

[2] = biological target: T1, human renin (Homo sapiens, UniProt P00797); assay: IC50 on human renin, angiotensin I generation from tetradecapeptide renin substrate (assay of Burton et al); format: biochemical
T1 sequence (P00797 67-406): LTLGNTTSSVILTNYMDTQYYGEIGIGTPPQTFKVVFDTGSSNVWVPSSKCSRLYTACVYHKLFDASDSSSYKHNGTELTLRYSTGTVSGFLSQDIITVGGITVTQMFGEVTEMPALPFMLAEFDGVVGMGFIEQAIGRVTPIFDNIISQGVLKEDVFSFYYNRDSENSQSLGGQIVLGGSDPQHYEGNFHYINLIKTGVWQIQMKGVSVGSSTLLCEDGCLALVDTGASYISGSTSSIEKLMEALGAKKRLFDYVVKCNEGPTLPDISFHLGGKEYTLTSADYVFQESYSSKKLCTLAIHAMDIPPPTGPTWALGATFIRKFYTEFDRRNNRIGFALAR
Experimental: The assay for testing the inhibitory activities of the pentapeptides on renin is described in Burton, J. et al, Biochem. 14: 3892-3898 (1975), which is herein incorporated by reference.
The 11 pentapeptides shown in Table I were synthesized by standard solid phase peptide synthesis as shown in the description following the table and the IC50 (concentration at which inhibition is 50%) value on human renin in the assay of Burton et al, supra, was determined for each sample.
Angiotensin I standards and tetradecapeptide renin substrate (TDP) were obtained from Peninsula Laboratories Inc. (San Mateo, CA). Renin was a gift of Dr. E. Slater (1980). Angiotensin I concentration was determined by radioimmunoassay using a commercially available kit (Clinical Assays, Cambridge, MA).
Standard renin solution (V3) is diluted 4-fold with M Tris-lysozyme buffer (pH 7.40). Concentration of […] of the renin inhibitor being tested are also prepared in the Tris-lysozyme buffer. For the uninhibited reaction Tris-lysozyme buffer alone is used in place of the inhibitor solution.
Reaction mixtures containing TDP solution ([…], 25 µM), renin solution (50 liters, 20-fold diluted), and the inhibitor (50 liters, 50-1000 M) were incubated for 1 hr at 37°, diluted 1000-fold and assayed for angiotensin I.
Inhibition is determined by the following equation:
% Inh.=((ng ANG Iunhib -ng ANG Iinh)/ng ANG
IC50 is determined by plotting Percent inhibition (% Inh.) against the inhibitor concentration and interpolating to determine the molarity of inhibitor at which 50% inhibition is observed.
Cross-reactivity of TDP with ANG I is less than 0.05%.

[3] = biological target: renin; details: pH 7.4; Poulsen et al 1973; read-out: inhibitory constant (KI); cited from earlier work
[4] = test system: isolated gut section; assay: In vitro transport of radiolabeled pentapeptide across isolated gut section; format: in vitro ADME; details: radiolabeled pentapeptide added to one side of an isolated gut section, label measured on the other side
Excerpt: Of particular interest is the fact that the peptides of the present invention are short chained, and can potentially be used as orally active peptides.

[5] = time 145 min, injection of teprotide (control)
[6] = IC50 (concentration at which inhibition is 50%), Table I, human renin
[7] = IC50, TDP substrate, pH 7.40, 1 hr at 37°
[8] = Table I, human renin, read-out: IC50 (concentration at which inhibition is 50%)
[9] = printed with the characterisation data of each peptide, TDP substrate, pH 7.40, 1 hr at 37°, read-out: IC50

## CC[C@H](C)[C@H](NC(=O)[C@H](CCC(N)=O)NC(=O)[C@@H]1CCCN1C(=O)[C@H](CCCNC(=N)N)NC(=O)[C@@H]1CCCN1C(=O)[C@H](Cc1c[nH]c2ccccc12)NC(=O)[C@@H]1CCC(=O)N1)C(=O)N1CCC[C@H]1C(=O)N1CCC[C@H]1C(=O)O [Teprotide, teprotide, reference compound]
[1]; [5]
  Blood Pressure: 76 mm Hg
  Plasma Renin Activity: ≥ 37

## CC(C)[C@H](NC(=O)[C@H](Cc1ccccc1)NC(=O)[C@@H](N)Cc1ccc(Cl)cc1)C(=O)N[C@@H](Cc1ccc(O)cc1)C(=O)N[C@@H](CCCCN)C(N)=O [RI-78, 4-chlorophenylalanylphenylalanylvalyltyrosyllysine-amide] (H-[Phe(4-Cl)]FVYK-NH2)
[1]; time 0 min, injection 0.5 mg RI-78
  Blood Pressure: 113 mm Hg
[1]; time 10 min, injection 2.5 mg RI-78
  Blood Pressure: 65 mm Hg
[1]; time 25 min (15 min after 2.5 mg RI-78), no further injection
  Blood Pressure: 111 mm Hg
[1]; time 30 min (20 min after 2.5 mg RI-78), no further injection
  Plasma Renin Activity: 28.5
[2]; [6]
  IC50: 70 µM
[2]; [7]
  IC50: 70 µM

## CC(C)[C@H](NC(=O)[C@H](Cc1ccccc1)NC(=O)[C@@H](N)Cc1ccccc1)C(=O)N[C@@H](Cc1ccc(Cl)cc1)C(=O)N[C@@H](CCCCN)C(N)=O [RI-85, Phenylalanylphenylalanylvalyl-4-chlorophenylalanyllysine-amide] (H-FFV[Phe(4-Cl)]K-NH2)
[2]; [6]
  IC50: ~100 µM
[2]; [7]
  IC50: 175 µM

## YFVYK-NH2 [RI-79, Tyrosylphenylalanylvalyltyrosyllysine-amide]
[2]; [8]
  IC50: 140 µM
[2]; [9]
  IC50: 50 µM

## COc1ccc(C[C@H](NC(=O)[C@@H](N)Cc2ccccc2)C(=O)N[C@H](C(=O)N[C@@H](Cc2ccc(O)cc2)C(=O)N[C@@H](CCCCN)C(N)=O)C(C)C)cc1 [RI-102, Phenylalanyl-O-methyltyrosylvalyltyrosyllysine-amide] (H-FY(Me)VYK-NH2)
[2]; [6]
  IC50: 190 µM

## Leu-Leu-Val-TyrH2
[3]
  Ki: 1020 µM

## FFVFK-NH2 [RI-84, Phenylalanylphenylalanylvalylphenylalanyllysine-amide]
[2]; [6]
  IC50: 750 µM

## CC(C)[C@H](NC(=O)[C@H](Cc1ccc(Cl)cc1)NC(=O)[C@@H](N)Cc1ccccc1)C(=O)N[C@@H](Cc1ccc(O)cc1)C(=O)N[C@@H](CCCCN)C(N)=O [RI-80, Phenylalanyl-4-chlorophenylalanylvalyltyrosyllysineamide] (H-F[Phe(4-Cl)]VYK-NH2)
[2]; [8]
  IC50: 40 µM
[4]
  transport across the gut: transported across the gut

## FFVYK-NH2 [RI-77, Phenylalanylphenylalanylvalyltyrosyllysine-amide]
[2]; [6]
  IC50: 80 µM

## FYVYK-NH2 [RI-81, Phenylalanyltyrosylvalyltyrosyllysine-amide]
[2]; [6]
  IC50: 80 µM
[2]; [7]
  IC50: 150 µM

## FFTYK-NH2 [RI-83, Phenylalanylphenylalanylthreonyltyrosyllysine-amide]
[2]; [6]
  IC50: 3750 µM

## Phenylalanylphenylalanyl-threo-3-chloro-L-2-amino-butyryltyrosyllysine amide [RI-82]
[2]; [8]
  IC50: 1250 µM
[2]; [9]
  IC50: 2450 µM
